Results on 5 compounds are retold here after paper PMC8459327, “Identification of molecular glues of the SLP76/14-3-3 protein–protein interaction” (RSC Medicinal Chemistry, 2021).

What all share (format): binding
Test [1] deals with T1, 14-3-3γ/SLP76 (Homo sapiens, UniProt P61981+Q13094). Nature of the test: Orthogonal SPR assay, compound flowed with SLP76 over immobilised 14-3-3γ. To be noted: for Stabilisation in SPR (in words): off-rate / mass on chip versus runs without compound; for SPR RU (%) mass increase 14-3-3γ/SLP76: percentage of SLP76 remained on the chip after the dissociation phase (+240 s). The arrangement: key to SPR RU (%) mass increase 14-3-3γ/SLP76: Ns: no stabilisation observed in SPR. How it is done:
Of the 16 hit compounds 13 were tested in an orthogonal SPR assay in which each compound was flowed with SLP76 over 14-3-3γ immobilised on the chip. Runs at different concentrations of compound were compared to the runs in absence of compound. […] The effect of the compounds on 14-3-3γ/SLP76 was measured by calculating the percentage of SLP76 remained on the chip after the dissociation phase and immediately before: RU (%) = RU 5 s before dissociation/RU +240 s after dissociation. Dose–response curves were extrapolated from those sensorgrams plotting the RU (%) mass increase over the increase in compound concentrations.
SPR experiments were performed on a Biacore T200 (Cytiva). The Sensor Chip NTA was validated as previously reported by Soini et al.[63] A DMSO tolerance at 2% and 5% was performed in the same way (Fig. S1 ^†).
For compounds testing, the compounds were preincubated with SLP76, in final DMSO concentration of 5%. The compounds were tested at a single concentration of 100 μM and at multiple concentrations following a 3-fold dilution from a top concentration of 100 μM with SLP76 at the saturation concentration of 250 nM. A second set of experiments were performed at multiple concentrations of compound following a 3-fold dilution from a top concentration of 200 μM with SLP76 around the KD concentration of 40 nM. The SLP76/compound mixtures were flowed over the immobilised 14-3-3γ at 30 μL min^−1 for 180 s before allowing dissociation for 5 minutes. After every cycle, the chip was washed with EDTA and Ni^2+ and 14-3-3γ reinjected for the next cycle. The compound effects were measured by calculating the percentage of SLP76 remained on the chip after the dissociation phase and right before: RU (%) = RU 5 s before dissociation/RU +240 s after dissociation. RU response points relative to +240 s after dissociation were also plotted and an apparent EC50 was estimated. The data were fitted with a “One site – specific” model on GraphPad Prism version 8.1.1 for Windows, GraphPad Software, La Jolla California USA, www.graphpad.com.
In general terms: In SPR one partner is held on a chip, and binding of the other changes the refractive index at the surface.

Test [2] has as its target T1, 14-3-3γ/SLP76. Nature of the test: HTRF dose-response assay on 14-3-3γ/SLP76. To be noted: stabilisation; 14-3-3γ-Tb 1 nM, SLP76-AF647 600 nM, 5% DMSO; EC50 estimated from fit; read-out: HTRF EC50 14-3-3γ/SLP76. The method, then: 384-Well logistic plates were prefilled with 2 μL of compounds at 2 mM, 100% DMSO, except for columns 1, 2, 23 and 24. Columns 1, 2 were filled with 2 μL of DMSO while columns 23, 24 were filled with 2 μL of the 14-3-3 inhibitor R18 at 20 μM using a Multidrop Dispenser (ThermoScientific). Next, 40 μL of protein mixture containing Tb-labelled 14-3-3γ at 1 nM and AF647 labelled SLP76 at 600 nM in assay buffer (50 mM Tris pH 7.5, 150 mM NaCl, 5 mM MgCl2, 0.05% v/v Tween-20) were added using a Multidrop Dispenser (ThermoScientific). […] To perform the assay, 30 μL volumes were then transferred using a Biomek FX^P Automated Workstation (Beckman Coulter) into Corning 384-well 3574 assay plates. The plates were incubated at room temperature with gentle shaking for 4 h. Finally, the data were collected on a PHERAstar FSX plate reader (BMG Labtech) with an λex 337 nm, λem 665 nm and 620 nm HTRF filter setting. The data were exported in IDBS ActivityBase (IDBS) where they were normalised setting the R18 negative control as 100% inhibition and the DMSO control as 0%. Negative percentage values were therefore associated with a stabilisation of the 14-3-3γ/SLP76 interaction. The threshold of −20% inhibition (or 20% stabilisation) was chosen to select the hits to follow up. The selected hits were retested on 14-3-3γ/SLP76 and were also tested against an unrelated protein pair (IL-17/receptor) in a similar assay setup. […] All the assays were performed as described above.
(§1) 384 logistic plates were prefilled with 40 μL of compounds at 10 mM, 100% DMSO in column 3. Columns 1, 2 and 4 to 22 were filled with 20 μL of 100% DMSO with a Multidrop Dispenser (ThermoScientific). 2-Fold dilutions of the compounds were carried over from column 3 to 22, with a CyBio FeliX liquid handler (analytikjena). 2 μL of R18 peptide at 20 μM was added to columns 23 and 24 of the Corning 384-well 3574 final assay plates with a Multidrop Dispenser (ThermoScientific). 40 μL of protein mixture, containing Tb labelled 14-3-3γ at 1 nM and AF647 labelled SLP76 at 600 nM in assay buffer (50 mM Tris pH 7.5, 150 mM NaCl, 5 mM MgCl2, 0.05% v/v Tween-20) were added with a Multidrop Dispenser (ThermoScientific) into the Corning 384-well 3574 final assay plates. 2 μL of compounds along with the DMSO control were then transferred with a CyBio FeliX liquid handler (analytikjena) from the 384 logistic plates to the final Corning 384-well 3574 assay plates. […] The dose–response on the first 64 compounds was performed in singlet from a 500 μM top concentration. The repetition on the best 16 compounds was performed in duplicates from a 250 μM top concentration. A dose–response assay on an unrelated 14-3-3ζ/p27 HTRF protein pair was performed as described above. Incubation, data acquisition and normalisation were performed as described above. For EC50 estimation, the data were fitted with a “log(agonist) vs. response (three parameters)” model on GraphPad Prism version 8.1.1 for Windows, GraphPad Software, La Jolla California USA, www.graphpad.com. In the case of duplicates, each data point is the average of a duplicate measurement, standard deviation is reported as error bars.

A further test deals with 14-3-3ζ/p27 (Homo sapiens, UniProt P46527+P63104). Nature of the test: HTRF dose-response assay on 14-3-3ζ/p27. The settings on record: for EC50: stabilisation, same FRET pair, EC50 estimated from fit, read-out: HTRF EC50 14-3-3ζ/p27. The method, then: as §1
Test [3] addresses T1, 14-3-3γ/SLP76. As to the kind of experiment: HTRF dose-ratio assay (SLP76 titration at fixed compound concentrations). How it is done: Each protein titration was performed in the presence of a fixed concentration of compound. […] Proteins and R18 peptide were diluted from their stock concentration in assay buffer (50 mM Tris pH 7.5, 150 mM NaCl, 5 mM MgCl2, 0.05% v/v Tween-20). Incubation and data acquisition were performed as described above. […] For data analysis the background FRET signal generated by the titration in the presence of R18 10 μM was removed from all values. KD values for each curve were estimated and comparison with the different concentration of compounds were made. The data were fitted with a “One site – specific” model on GraphPad Prism version 8.1.1 for Windows, GraphPad Software, La Jolla California USA, www.graphpad.com. Each data point is the average of a duplicate measurement, standard deviation is reported as error bars.
Background: In TR-FRET formats the signal depends on donor and acceptor labels being close together.

Where “and” joins values, the source holds several entries; their conditions need not be identical. Equal values may be shown once. Entries after “also recorded” stand apart in the source; their conditions may differ.

T1 sequence (Q13094 356-533): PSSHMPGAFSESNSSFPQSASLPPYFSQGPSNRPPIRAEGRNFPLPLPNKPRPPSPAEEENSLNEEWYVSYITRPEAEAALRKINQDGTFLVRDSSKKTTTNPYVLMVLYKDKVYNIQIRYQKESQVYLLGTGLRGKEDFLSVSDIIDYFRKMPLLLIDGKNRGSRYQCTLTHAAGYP
T1 sequence (P61981 whole entry): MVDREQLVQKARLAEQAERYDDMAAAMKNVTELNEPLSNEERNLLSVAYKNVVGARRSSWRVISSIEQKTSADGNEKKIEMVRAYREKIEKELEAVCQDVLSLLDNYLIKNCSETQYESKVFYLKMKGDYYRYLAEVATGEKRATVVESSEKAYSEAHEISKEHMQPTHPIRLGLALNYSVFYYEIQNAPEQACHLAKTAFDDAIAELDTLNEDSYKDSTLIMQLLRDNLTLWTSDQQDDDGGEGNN
Chain of 14-3-3ζ/p27 (P63104 whole entry): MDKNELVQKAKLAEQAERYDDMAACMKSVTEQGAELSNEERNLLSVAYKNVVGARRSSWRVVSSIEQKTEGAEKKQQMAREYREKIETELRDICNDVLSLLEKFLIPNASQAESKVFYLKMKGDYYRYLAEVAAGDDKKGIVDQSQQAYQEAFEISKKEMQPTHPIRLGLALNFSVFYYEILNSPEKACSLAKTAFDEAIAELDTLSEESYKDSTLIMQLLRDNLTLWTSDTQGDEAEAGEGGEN
Chain of 14-3-3ζ/p27 (P46527 whole entry): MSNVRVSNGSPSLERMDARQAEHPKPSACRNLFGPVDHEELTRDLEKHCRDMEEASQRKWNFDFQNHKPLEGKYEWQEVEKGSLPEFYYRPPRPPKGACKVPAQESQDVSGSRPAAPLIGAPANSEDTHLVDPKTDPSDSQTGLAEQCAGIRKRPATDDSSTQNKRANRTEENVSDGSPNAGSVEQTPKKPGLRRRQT

Consider `COc1ccc(C(=O)N2C[C@@H]3CN(CCO3)C(=O)[C@@H]3C[C@@H](CN3Cc3cccnc3)NC(=O)C[C@@H]3O[C@H](C2)[C@@H](O)[C@H]3O)cc1` [Compound 3, (3S,6S,10S,11R,12S,13R,17R)-11,12-dihydroxy-15-(4-methoxybenzoyl)-4-(pyridin-3-ylmethyl)-18,22-dioxa-1,4,7,15-tetrazatetracyclo[15.3.1.13,6.110,13]tricosane-2,8-dione], for which, at 14-3-3γ/SLP76 [1], the “Stabilisation in SPR (in words)” value is “orthogonally confirmed by SPR; also recorded: orthogonally confirmed in the SPR assay” and the “SPR RU (%) mass increase 14-3-3γ/SLP76” value came to 66.9%. For the same compound, the EC50 on 14-3-3γ/SLP76 [2] is 14.4 ± 1.9 µM. The “Selectivity between 14-3-3γ/SLP76 and 14-3-3ζ/p27 (in words)” value at 14-3-3ζ/p27 (comparison of HTRF dose-responses) is given as “selective for the 14-3-3γ/SLP76 system”. On 14-3-3ζ/p27, the EC50 was > 250 µM. Further, the “KD improvement in the SLP76 HTRF assay” value at 14-3-3γ/SLP76 [3] came out at 10 fold.

On to `c1cc(-c2nnc3scnn23)ccn1` [Compound 7, 3-pyridin-4-yl-[1,2,4]triazolo[3,4-b][1,3,4]thiadiazole], for which, on 14-3-3γ/SLP76 [1], the “Stabilisation in SPR (in words)” value is reported as “orthogonally confirmed by SPR; also recorded: strong concentration dependence in off-rate” and the “SPR RU (%) mass increase 14-3-3γ/SLP76” value came to 57.7%. Moreover, the EC50 at 14-3-3γ/SLP76 [2] is 5.3 ± 1.9 µM. Further, on 14-3-3ζ/p27, the “Stabilisation of 14-3-3ζ/p27 in HTRF (in words)” value is recorded as “no measurable modulation” and the EC50 was > 250 µM. Further, the “KD improvement in the SLP76 HTRF assay” value on 14-3-3γ/SLP76 [3] is “fourfold”.

Regarding `CC(C)CNC(=O)c1ccc2c(c1)nc1n2CCN(C(C)C)C1=O` [Compound 12, N-(2-methylpropyl)-1-oxo-2-propan-2-yl-3,4-dihydropyrazino[1,2-a]benzimidazole-8-carboxamide], at 14-3-3γ/SLP76 [1], the “Stabilisation in SPR (in words)” value was “orthogonally confirmed by SPR” and the “SPR RU (%) mass increase 14-3-3γ/SLP76” value is 67.4%. The EC50 on 14-3-3γ/SLP76 [2] is 3.2 µM and 3.8 µM. The “Selectivity for 14-3-3ζ/p27 over 14-3-3γ/SLP76” value at 14-3-3ζ/p27 (ratio of HTRF EC50s) was ~9 fold. For the same compound, at 14-3-3ζ/p27, the EC50 was 0.43 ± 0.37 µM.

For `S=c1[nH]nc(Cn2nnc3ccccc32)o1` [Compound 13, 5-(benzotriazol-1-ylmethyl)-1,3,4-oxadiazole-2-thiol], the “SPR RU (%) mass increase 14-3-3γ/SLP76” value on 14-3-3γ/SLP76 [1] is on record as “Ns ^d”. In addition, the EC50 is 4.9 ± 1.1 µM on 14-3-3γ/SLP76 [2] and > 250 µM at 14-3-3ζ/p27.

`O=C(Cn1nc(C(F)(F)F)c2c1CCCC2)Nc1ccc(Cl)c(Cl)c1` [Compound 14, N-(3,4-dichlorophenyl)-2-[3-(trifluoromethyl)-4,5,6,7-tetrahydroindazol-1-yl]acetamide]: at 14-3-3γ/SLP76 [1], the “Stabilisation in SPR (in words)” value was “not confirmed in the SPR assay” and the “SPR RU (%) mass increase 14-3-3γ/SLP76” value was “Ns ^d”. For the same compound, the EC50 at 14-3-3γ/SLP76 [2] is 21.2 ± 11.3 µM. In addition, at 14-3-3ζ/p27, the EC50 is 12.6 ± 14.4 µM.
